Columns and labels:
Factor XI = Factor XI clotting activity, AXIOMATIC-SSP; type: in vivo, human
Method: As used herein, “Factor XI Clotting Activity” is determined utilizing an aPTT-based 1-stage clotting time assay. Serial dilutions of normal pooled plasma are mixed with FXI-depleted plasma and the clotting times are measured according to standard aPTT protocol, to establish a reference range. Subject test plasma is treated in the same way and compared with the reference plasma.
In some embodiments, the Factor XI Clotting Activity is measured as follows: Factor XI (FXI) activity is measured using a modification of the activated partial thromboplastin time (aPTT) using Actin FS (Siemens Healthcare) on the Siemens BCS®XP analyzer. […]. The reference standard, at approximately 100%, is diluted by the BCS®XP analyzer in saline to generate pre-selected calibration levels of FXI. The calibration curve is plotted with FXI activity in percent (%) on the x-axis and clotting time in seconds on the y-axis. A log/lin regression curve fit is used. The samples to be tested are mixed with FXI deficient plasma (containing less than 1% FXI and at least 75% of all the other factors) to normalize all other factors. APTT reagent (Actin FS) is added and the mixture is incubated. Following incubation, calcium chloride is added to the mixture and the time to clot formation (measured optically) is compared to the time on the calibration curve. Samples are tested at the base dilution (1:10) prepared by the BCS®XP in saline. In other embodiments, formation of the fibrin clot is measured by mechanical methods (viscosity).
[…]. […] […].

[1] = AXIOMATIC-SSP treatment discontinuation / completion; settings: 200 mg BID, primarily due to AEs
Excerpt: The study enrolled participants ≥40 years of age who had ischemic stroke or TIA. Ischemic stroke was defined as a neurological deficit attributable to a non-lacunar, acute brain infarction detected by neuroimaging and relevant to the clinical symptoms and National Institutes of Health Stroke Score (NIHSS)≤7 at the time of randomization. TIA was defined as acute onset neurological deficit attributable to focal ischemia of the brain by history or examination, with complete resolution of the deficit and no brain infarction on neuroimaging and ABCD score ≥6 or presence of motor symptoms. Evidence of relevant intracranial or cervical arterial atherosclerotic plaque, ulceration or thrombus in a feeding artery documented by imaging was required regardless of whether the index event was ischemic stroke or TIA, and all participants were required to have a Modified Rankin Score ≤3 before the index event. […] Following informed consent, participants received ASA 100 mg QD and a single loading dose of clopidogrel 300 mg if not already given as standard of care. […] A second MRI was performed on Day 90±6 days. All participants were required to remain on study treatment until the Day 90 MRI was performed up to Day 96.

[2] = Population pharmacokinetic analysis of AXIOMATIC-SSP PK data; type: in vivo, human; settings: 25 mg BID oral
[3] = Thorough QT study (QT/QTc interval, ECG); type: in vivo, human; settings: for highest upper limit of 2-sided 90% CI for ΔΔQTcF: Day 1 and Day 4 postdose
[4] = AXIOMATIC-TKR Phase II trial; type: in vivo, human; settings: 25 mg twice daily
Excerpt: […]. […] (Weitz, et al., Milvexian for the Prevention of Venous Thromboembolism, N. Engl. […].

[5] = Safety and tolerability of milvexian (thorough QT study / general); type: in vivo, human
Excerpt: All 66 (100.0%) participants enrolled in the study received at least one entire dose of study intervention.

Factor Xa = settings: cited from earlier work
[6] = cited from earlier work; for chronic clopidogrel vs aspirin monotherapy: atherosclerosis, including MI within 35 days
[7] = 25 mg BID, Day 21 anytime, N=233
[8] = 25 mg BID, Day 90 anytime, N=223
[9] = dose of 25 mg, 50 mg, or 100 mg
[10] = phase III, ACS patients, in combination with dual antiplatelet therapy

## C[C@@H]1CCC[C@H](n2cnc(-c3cc(Cl)ccc3-n3cc(Cl)nn3)cc2=O)c2cc(ccn2)-c2c(cnn2C(F)F)NC1=O [milvexian, (5R,9S)-9-(4-(5-chloro-2-(4-chloro-1H-1,2,3-triazol-1-yl)phenyl)-6-oxopyrimidin-1(6H)-yl)-2^1-(difluoromethyl)-5-methyl-2^1H-3-aza-1(4,2)-pyridina-2(5,4)-pyrazolacyclonaphan-4-one]
Factor XI; 25 mg BID, Day 1 4 h, N=254
  FXI Clotting Activity percent change from baseline, mean: −7.21%
  FXI Clotting Activity percent change from baseline, median: −8.48%
  FXI Clotting Activity value, median: 100.0%
Factor XI; 25 mg BID, Day 1 12 h, N=241
  FXI Clotting Activity percent change from baseline, mean: −6.89%
  FXI Clotting Activity percent change from baseline, median: −7.63%
Factor XI; 25 mg BID, Day 1 24 h, N=253
  FXI Clotting Activity percent change from baseline, mean: −9.69%
  FXI Clotting Activity percent change from baseline, median: −11.30%
Factor XI; [7]
  FXI Clotting Activity percent change from baseline, mean: −18.1%
  FXI Clotting Activity percent change from baseline, median: −19.10%
Factor XI; [8]
  FXI Clotting Activity percent change from baseline, mean: −17.7%
  FXI Clotting Activity percent change from baseline, median: −20.16%
Factor XI; milvexian treated groups
  dose-response of Factor XI clotting activity: dose-dependent decreases in the Factor XI clotting activity
[1]
  early treatment discontinuation rate: 31.60%
[2]
  steady state mean (std) Cmax: 346 (129) ng/mL
[2]; […]
  steady state mean (std) AUC0-24: 7290 (2940) ng*h/mL
[3]; 100 mg
  upper limits of all 2-sided 90% CIs of time-matched differences vs placebo in changes from baseline in QTcF: below 10 ms
  highest upper limit of 2-sided 90% CI for ΔΔQTcF: 5.16 ms
[3]; 100 mg twice daily
  upper limits of 90% CI for ΔΔQTcF at milvexian Tmax: below 10 ms
[3]; 100 mg twice daily as capsule
  upper bound of two-sided CI for largest ΔΔQTc (QTcF): less than 10 milliseconds
[3]; 200 mg
  upper limits of all 2-sided 90% CIs of time-matched differences vs placebo in changes from baseline in QTcF: below 10 ms
  highest upper limit of 2-sided 90% CI for ΔΔQTcF: 4.57 ms
[3]; 200 mg twice daily
  upper limits of 90% CI for ΔΔQTcF at milvexian Tmax: below 10 ms
[3]; 200 mg twice daily as solution
  upper bound of two-sided CI for largest ΔΔQTc (QTcF): less than 10 milliseconds
[3]; 100 and 200 mg
  effect on QT interval (QTcF), ICH E14: no effect of clinical or regulatory concern on the QT interval
  effect on QT interval (study-specific and Bazett's correction), ICH E14: no effect of clinical or regulatory concern on the QT interval
[3]; [9]
  QTc interval prolongation: no clinically significant QTc interval prolongation
  ΔΔQTc: less than 10 msec
[3]; therapeutic (100 mg) and supratherapeutic (200 mg)
  evidence of QT/QTc interval prolongation, ICH E14: does not show evidence of QT/QTc interval prolongation of clinical or regulatory concern
[3]; whole study
  ECG abnormalities reported as TEAE: No ECG abnormalities were reported as TEAE
  HR, RR interval, PR interval, QRS width: No consistent or clinically relevant changes over time were observed in HR, RR interval, PR interval, or QRS width
  treatment-emergent QTcF or QTcB values >480 ms or changes >60 ms: No treatment-emergent actual values of QTcF or QTcB>480 ms or changes from baseline >60 ms were observed
  treatment-emergent actual values of QTc>480 ms: No treatment-emergent actual values of QTc>480 ms were observed
  treatment-emergent changes from baseline of QTcF or QTcP>60 ms: No treatment-emergent changes from baseline of QTcF or QTcP>60 ms were observed
[4]
  efficacy compared with enoxaparin: comparable efficacy to enoxaparin
  safety profile compared with enoxaparin: favorable safety profile
[5]; administration according to the disclosure
  safety and tolerability: generally safe and well tolerated
[5]; whole study
  mean vital signs: no consistent or clinically relevant changes over time in mean vital signs

## O=C(NC[C@H]1CN(c2ccc(N3CCOCC3=O)cc2)C(=O)O1)c1ccc(Cl)s1 [rivaroxaban]
Factor Xa; [10]
  risk of death from cardiovascular causes, myocardial infarction, and stroke: reduced the risk of death from cardiovascular causes, myocardial infarction, and stroke
  risk of major bleeding: increased the risk of major bleeding
Factor Xa; post-ACS care
  bleeding risks: increased bleeding risks
  cardiovascular events: reduced cardiovascular events
  thrombin generation: decreased thrombin generation

## CC(=O)Oc1ccccc1C(=O)O [aspirin]
[6]
  chronic clopidogrel vs aspirin monotherapy: comparable results
[6]; pooled randomized trials vs control, secondary prevention of ACS or chronic CAD
  risk and severity of recurrent MACE: reduces the risk and severity of early and late recurrent MACE

## COc1c(N2C[C@@H]3CCCN[C@@H]3C2)c(F)cc2c(=O)c(C(=O)O)cn(C3CC3)c12 [moxifloxacin, reference compound]
[3]; following moxifloxacin
  participants with treatment-emergent change from baseline of QTcB>60 ms, number: One
  participants with treatment-emergent change from baseline of QTcB>60 ms, percent: 1.7%
[3]; single dose 400 mg moxifloxacin
  assay sensitivity (QTc, positive control): Assay sensitivity for moxifloxacin was also demonstrated

## COC(=O)[C@H](c1ccccc1Cl)N1CCc2sccc2C1 [clopidogrel]
[6]
  chronic clopidogrel vs aspirin monotherapy: comparable results

— patent US20260315474A1 (BRISTOL-MYERS SQUIBB COMPANY, priority 2023, published 2026)
